How the values were obtained:
[1] = system: suture induced ocular fibrosis; assay: suture induced ocular fibrosis model in rabbits (Example 4); format: in vivo; conditions: for areas of neovascularization on the corneal surface: 0.3% topical 35 μL/eye three times daily for 10 days, FIG. 8; for fibroplasia and/or collagen density (histological staining) / alpha SMA staining (immunohistochemical analysis): 0.3% topical three times daily for 10 days, FIG. 9; for fibroplasia and/or collagen density (histological staining): Day 11; for alpha SMA staining (immunohistochemical analysis): relative to vehicle
Method: A study was conducted to determine the potential beneficial effects of topical administration of test compounds and vehicle in a suture induced ocular fibrosis model in rabbits. Sutures were placed intrastromally, under a microscope, in the cornea of rabbits. In each eye, one 9.0 silk suture was placed, in a vertical position, temporal to the center of the cornea and a second suture was placed nasal to the corneal center. Each suture had two stromal incursions approximately 2 mm from the limbus. Test compounds having a certain spectrum of multikinase inhibition activities or vehicle were topically instilled (35 μL/eye) in the eyes three times daily for 10 days following the day of surgery. The treatment groups include vehicle, axitinib (0.3%), nintedanib (0.3%), pirfenidone (1%), riociguat (0.3%), sorafenib (0.3%) and lenvatinib (0.3%). Six left eyes were used per treatment group.
During the in-life phase, gross ocular observations of very slight to moderate conjunctival congestion and swelling were similar among groups, including the vehicle control. The animals were sacrificed on Day 11 and eyes enucleated and dissected for histopathological evaluation.

TGF beta mRNA expression = TGF beta mRNA expression in rabbit dermal wound model (Example 5); format: in vivo, New Zealand White rabbits; conditions: 1% intradermal days 15 and 29; Day 42; FIG. 10
Method: (§1) Test compounds were examined in full-thickness dermal wounds in rabbits. Seven male New Zealand White rabbits, ranging in body weight from 3.03 to 3.40 kg were used in this study. Four wounds were placed on the ventral surface of both ears using an 8 mm skin punch biopsy. Axitinib (1.0%), nintedanib (1.0%), lenvatinib (1.0%), sorafenib (1.0%) and sunitinib (1.0%) were administered by intradermal or intralesional injection on days 15 and 29 following surgery. Animals were euthanized on Day 42 and trauma sites were harvested and divided in half. One half was preserved in formalin for histological examination and the other half frozen for TGF beta analysis.
TGF beta mRNA expression in treated trauma samples was compared to expression in untreated samples. In general, TGF beta expression in treated samples was lower relative to untreated trauma samples.

[2] = system: testosterone and phenylephrine induced benign prostate hyperplasia; assay: testosterone and phenylephrine induced benign prostate hyperplasia in rats (Example 3); format: in vivo, Male Wistar rats; conditions: for inhibition of cellular proliferation in testosterone/phenylephrine induced benign prostate hyperplasia model: 1% intra-prostate days 1 and 18, rat; for epithelial (glandular) hyperplasia score, dorsolateral prostate, representative image / epithelial (glandular) hyperplasia score, ventral prostate, representative image: TE+PE induced rats, intra-prostate 0.4 ml days 1 and 18, day 32, induced vehicle score=4; for epithelial (glandular) hyperplasia score, dorsolateral prostate, representative image: grade 0 (not present) to 5 (severe), FIG. 4; for epithelial (glandular) hyperplasia score, ventral prostate, representative image: grade 0 to 5, FIG. 5
Method: This study was conducted to determine the effects of multikinase inhibitors and vehicle on testosterone and phenylephrine induced benign prostate hyperplasia in rats. Male Wistar rats were induced with testosterone (2 mg/kg) plus phenylephrine (5 mg/kg) administered daily by subcutaneous injection on days 5 through 32. Vehicle or test compounds (all 1% w/v), nintedanib, sunitinib or lenvatinib and doxazosin mesylate, were administered by intra-prostate injection (0.4 ml) in dorsolateral and ventral lobes on days 1 and 18. Animals were euthanized on day 32.
At necropsy, the ventral and dorsolateral lobes of the prostate were separated and then cut into halves. The left halves were fixed in 10% neutral buffered formalin, sectioned, and stained with Hematoxylin and Eosin (H&E). Histological changes in these sections were scored. Epithelial hyperplasia was recognized as an increase in epithelial cells within normal-appearing gland profiles, primarily reflected by stratification of epithelial cells and increased presence of epithelial tufting and papillary projections. A severity grade of 0 (not present) through 5 (severe) was assigned to each sample.

[3] = system: full-thickness dermal wounds; assay: full-thickness dermal wounds in rabbit ear, histopathology (Example 5); format: in vivo, New Zealand White rabbits; set-up: average total score of test wounds lower than untreated/control wounds by / Neovascularization (histopathology score, treated mean) / Fibrosis/Collagen (histopathology score, treated mean) / Reepithelialization (histopathology score, treated mean) / Total Score (histopathology, treated mean): scale not given here; conditions: for Fibrosis/Collagen (histopathology score, treated mean) / Neovascularization (histopathology score, treated mean) / Reepithelialization (histopathology score, treated mean) / Total Score (histopathology, treated mean): 1% intradermal dosing days 15 and 29, Day 42; for average total score of test wounds lower than untreated/control wounds by: difference treated vs control
Method: as §1, with “analysis. Tissue H&E staining was evaluated semi-quantitatively for inflammation and neovascularization. Tissue fibrosis and collagen organization were evaluated by Mason's trichrome staining. Scores for four intradermal sites receiving test articles were averaged for each rabbit. Most scar tissues were composed of neovascularization, fibroblast hyperplasia, collagen disorganization and re-epithelialization.” for “analysis.”

[4] = system: TGF beta 1 protein levels; assay: TGF beta 1 protein level (ELISA) in pig linear incision wound model (Example 6); format: in vivo, Gottingen minipigs; conditions: 16 mg per wound site intradermal; Days 4, 7 and 9; FIG. 11
Method: Full-thickness linear incision wounds were created in Gottingen minipigs on Day 1. 10 wounds approximately 3 cm in length and spaced at least 5 cm apart were created on the dorsal surface of the animals, perpendicular to the spine. Test agents included nintedanib (2%), lenvatinib (2%), sorafenib (1%), axitinib (2%) and vehicle control. Test agents were administered by intradermal injection immediately after wound creation. The dose of nintedanib, lenvatinib, sorafenib, or axitinib was 16 mg per wound site. Three minipigs were dosed in a similar manner. One minipig was sacrificed on Day 4, one on Day 7, and one on Day 9.
At the time of sacrifice, two dermal punch biopsies (4 mm) from each side of the wound sites were collected. Two biopsies were flash frozen in liquid nitrogen and stored at −80° C. prior to processing by protein extraction and ELISA (enzyme-linked immunosorbent assay) analysis. TGF beta protein levels were measured on Days 4, 7 and 9.

[5] = system: LL37-induced inflammation; assay: intradermal LL37 injection-induced inflammation model in mice, histopathology (Example 7); format: in vivo; conditions: single intradermal injection 1.6 mg, FIG. 13
Method: (§2) In our study, mice were injected subcutaneously with 40 μL of LL-37 (3.3 mg/mL) to induce inflammatory reactions. Immediately following the LL-37 injection, axitinib, nintedanib, and lenvatinib were individually administered as a single intradermal injection (1.6 mg). LL-37 injection was repeated every 12 hours for a total of 4 injections. Endotoxin-free water and dexamethasone (3 mg/kg by intraperitoneal injection, twice), respectively, were used as negative and positive control groups.
At 48 hours after the initial LL-37 injection, the dorsal skin was photographed, and the severity of skin lesions were scored for redness and measured for areas of involvement.
The tissue samples were analyzed for inflammation characteristics. Histopathology endpoints included inflammation, and CD4+ and CD8+ T-lymphocyte immunostaining. For inflammation scores, tissues were examined histologically and scored for inflammatory cell infiltrate.

TGFb-1 mRNA expression = assay: TGFb1 mRNA expression in LL37-induced mice (Example 7); format: in vivo; conditions: single intradermal injection 1.6 mg, FIG. 12
Method: as §2
The TGFb1 mRNA expression in mice induced with LL37 and treated with lenvatinib was 79% of that challenged with LL37 alone (i.e., without treatment).

[6] = 1% intradermal, rabbit ear wound

How did the “areas of neovascularization on the corneal surface” value [1] turn out when `COC(=O)c1ccc2c(c1)NC(=O)/C2=C(\Nc1ccc(N(C)C(=O)CN2CCN(C)CC2)cc1)c1ccccc1` [nintedanib] was run?
The value was “efficacious in reducing the areas of neovascularization”.

What about the “fibroplasia and/or collagen density (histological staining)” value [1] of the same molecule?
The value was “significantly reduced fibroplasia and/or collagen density”.

What about the “alpha SMA staining (immunohistochemical analysis)” value [1] of the same molecule?
The value was “significantly reduced alpha SMA staining”.

And the “mean folds of TGF beta mRNA expression vs untreated trauma samples” value (TGF beta mRNA expression)?
Its value is “lower than the expression level in untreated trauma samples”.

What about the “inhibition of cellular proliferation in testosterone/phenylephrine induced benign prostate hyperplasia model” value [2] of the same molecule?
Its value is “effective inhibitors of cellular proliferation”.

And the “epithelial (glandular) hyperplasia score, dorsolateral prostate, representative image” value [2]?
Its value is 3.

What about the “epithelial (glandular) hyperplasia score, ventral prostate, representative image” value [2] of the same molecule?
The value was 3.

And the “Fibrosis/Collagen (histopathology score, treated mean)” value ([3]; rabbit ear wound)?
Its value is 3.

What about the “Neovascularization (histopathology score, treated mean)” value ([3]; rabbit ear wound) of the same molecule?
The value was 1.

And the “Reepithelialization (histopathology score, treated mean)” value ([3]; rabbit ear wound)?
The value was 0.5.

And the “Total Score (histopathology, treated mean)” value ([3]; rabbit ear wound)?
The value was 4.5.

And the “average total score of test wounds lower than untreated/control wounds by” value ([3]; 1% intradermal)?
Its value is 1.5.

What about the “angiogenesis and fibrosis at treated trauma sites (histopathology summary)” value [3, 6] of the same molecule?
The value was “decreased angiogenesis and fibrosis”.

And the “fibrosis compared with control wound sites” value [3, 6]?
Its value is “about the same fibrosis as untreated wounds”.

And the “neovascularization compared with untreated wounds” value [3, 6]?
Its value is “much less neovascularization”.

What about the “scar formation overall compared with control sites” value [3, 6] of the same molecule?
Its value is “less scar formation compared with the control sites”.

What about the “TGF beta 1 protein levels in wound” value [4] of the same molecule?
Its value is “time-dependent inhibition of TGF beta 1 protein levels”.

And the “inflammation scores (inflammatory cell infiltrate)” value [5]?
Its value is “prominent reductions in the scores of inflammation”.

For `COc1cc2nccc(Oc3ccc(NC(=O)NC4CC4)c(Cl)c3)c2cc1C(N)=O` [lenvatinib], which “areas of neovascularization on the corneal surface” value [1] is on record?
The value was “efficacious in reducing the areas of neovascularization”.

What about the “fibroplasia and/or collagen density (histological staining)” value [1] of the same molecule?
Its value is “significantly reduced fibroplasia and/or collagen density”.

What about the “alpha SMA staining (immunohistochemical analysis)” value [1] of the same molecule?
The value was “significantly reduced alpha SMA staining”.

What about the “TGFb1 mRNA expression relative to LL37 alone (without treatment)” value (TGFb-1 mRNA expression) of the same molecule?
The value was 79%.

And the “TGFb-1 mRNA expression among all treatment groups” value (TGFb-1 mRNA expression)?
Its value is “lowest TGFb-1 mRNA expression”.

And the “mean folds of TGF beta mRNA expression vs untreated trauma samples” value (TGF beta mRNA expression)?
The value was “lower than the expression level in untreated trauma samples”.

And the “inhibition of cellular proliferation in testosterone/phenylephrine induced benign prostate hyperplasia model” value [2]?
Its value is “effective inhibitors of cellular proliferation”.

What about the “epithelial (glandular) hyperplasia score, dorsolateral prostate, representative image” value [2] of the same molecule?
Its value is 2.

And the “epithelial (glandular) hyperplasia score, ventral prostate, representative image” value [2]?
Its value is 3.

And the “Fibrosis/Collagen (histopathology score, treated mean)” value ([3]; rabbit ear wound)?
The value was 2.5.

What about the “Neovascularization (histopathology score, treated mean)” value ([3]; rabbit ear wound) of the same molecule?
The value was 2.

And the “Reepithelialization (histopathology score, treated mean)” value ([3]; rabbit ear wound)?
The value was 0.

And the “Total Score (histopathology, treated mean)” value ([3]; rabbit ear wound)?
Its value is 4.5.

And the “average total score of test wounds lower than untreated/control wounds by” value ([3]; 1% intradermal)?
Its value is 0.5.

And the “angiogenesis and fibrosis at treated trauma sites (histopathology summary)” value [3, 6]?
Its value is “decreased angiogenesis and fibrosis”.

What about the “fibrosis compared with control wound sites” value [3, 6] of the same molecule?
Its value is “decreased fibrosis compared to control wound sites”.

And the “TGF beta 1 protein levels in wound” value [4]?
Its value is “time-dependent inhibition of TGF beta 1 protein levels”.

And the “inflammation scores (inflammatory cell infiltrate)” value [5]?
Its value is “prominent reductions in the scores of inflammation”.

From patent US11400089B2, “Multikinase inhibitors and uses in reproductive and digestive tract fibrosis” (AIVIVA BIOPHARMA, INC., priority 2017, dated 2022)
